{"source": "patent US8906889B2", "about": "“C-3 cycloalkenyl triterpenoids with HIV maturation inhibitory activity” (priority 2012, dated 2014)", "note": "Where a name gives a salt, the structure may show the parent alone.", "data": [{"test_system": "recombinant NL4-3 virus (Renilla luciferase, Gag P373S)", "experiment": "HIV cell culture assay (luciferase reporter, MT-2 cells)", "type": "cell-based", "conditions": "MT-2 cells infected for 4-5 days with NLRluc recombinants; luciferase activity", "experimental": "(§1) MT-2 cells and 293T cells were obtained from the NIH AIDS Research and Reference Reagent Program. MT-2 cells were propagated in RPMI 1640 media supplemented with 10% heat inactivated fetal bovine serum, […]. The 293T cells were propagated in DMEM media supplemented with 10% heat inactivated fetal bovine serum (FBS), 100 units/ml penicillin G and 100 μg/ml streptomycin. The proviral DNA clone of NL4-3 was obtained from the NIH AIDS Research and Reference Reagent Program. A recombinant NL4-3 virus, in which a section of the nef gene from NL4-3 was replaced with the Renilla luciferase gene, was used as a reference virus. In addition, residue Gag P373 was converted to P373S. Briefly, the recombinant virus was prepared by transfection of the altered proviral clone of NL4-3. Transfections were performed in 293T cells using LipofectAMINE PLUS from Invitrogen (Carlsbad, Calif.), according to manufacturer's instruction. The virus was titered in MT-2 cells using luciferase enzyme activity as a marker. Luciferase was quantitated using the Dual Luciferase kit from Promega (Madison, Wis.), with modifications to the manufacturer's protocol. The diluted Passive Lysis solution was pre-mixed with the re-suspended Luciferase Assay Reagent and the re-suspended Stop & Glo Substrate (2:1:1 ratio). Fifty (50) μL of the mixture was added to each aspirated well on assay plates and luciferase activity was measured immediately on a Wallac TriLux (Perkin-Elmer). Antiviral activities of inhibitors toward the recombinant virus were quantified by measuring luciferase activity in cells infected for 4-5 days with NLRluc recombinants in the presence serial dilutions of the inhibitor.", "units": {"EC50": "nM"}, "values": [{"smiles": "C=C(C)[C@@H]1CC[C@]2(NCCN3CCS(=O)(=O)CC3)CC[C@]3(C)[C@H](CC[C@@H]4[C@@]5(C)CC=C(C6=CC(C(=O)O)C(C(=O)O)C6)C(C)(C)[C@@H]5CC[C@]43C)[C@@H]12", "note": "(single isomer, unassigned) [Example A20]", "EC50": 60}, {"smiles": "C=C(C)[C@@H]1CC[C@]2(NCCN3CCC(S(C)(=O)=O)CC3)CC[C@]3(C)[C@H](CC[C@@H]4[C@@]5(C)CC=C(C6=CC7C(C6)C7C(=O)O)C(C)(C)[C@@H]5CC[C@]43C)[C@@H]12", "note": "(single isomer, unassigned) [Example A28]", "EC50": 0.658}]}, {"test_system": "recombinant NL4-3 virus (Renilla luciferase, Gag P373S)", "experiment": "HIV cell culture assay (luciferase reporter, MT-2 cells)", "type": "cell-based", "conditions": "Renilla, NL43, MT-2 cells infected for 4-5 days with NLRluc recombinants; luciferase activity", "experimental": "as §1", "units": {"EC50": "nM"}, "values": [{"smiles": "C=C(C)[C@@H]1CC[C@]2(NCCN3CCC(S(C)(=O)=O)CC3)CC[C@]3(C)[C@H](CC[C@@H]4[C@@]5(C)CC=C(C6=CCC(NC(C)=O)(C(=O)O)CC6)C(C)(C)[C@@H]5CC[C@]43C)[C@@H]12", "note": "(mixture of isomers) [Example A32, 1-acetamido-4-((1R,3aS,5aR,5bR,7aR,11aS,11bR,13aR,13bR)-5a,5b,8,8,11a-pentamethyl-3a-((2-(4-(methylsulfonyl)piperidin-1-yl)ethyl)amino)-1-(prop-1-en-2-yl)-2,3,3a,4,5,5a,5b,6,7,7a,8,11,11a,11b,12,13,13a,13b-octadecahydro-1H-cyclopenta[a]chrysen-9-yl)cyclohex-3-enecarboxylic acid]", "EC50": 1.5}, {"smiles": "C=C(C)[C@@H]1CC[C@]2(NCCN3CCC(S(C)(=O)=O)CC3)CC[C@]3(C)[C@H](CC[C@@H]4[C@@]5(C)CC=C(C6=CCC(CC(=O)O)CC6)C(C)(C)[C@@H]5CC[C@]43C)[C@@H]12", "note": "(mixture of isomers) [Example A33, 2-(4-((1R,3aS,5aR,5bR,7aR,11aS,11bR,13aR,13bR)-5a,5b,8,8,11a-pentamethyl-3a-((2-(4-(methylsulfonyl)piperidin-1-yl)ethyl)amino)-1-(prop-1-en-2-yl)-2,3,3a,4,5,5a,5b,6,7,7a,8,11,11a,11b,12,13,13a,13b-octadecahydro-1H-cyclopenta[a]chrysen-9-yl)cyclohex-3-en-1-yl)acetic acid]", "EC50": 570}, {"smiles": "C=C(C)[C@@H]1CC[C@]2(NCCN3CCS(=O)(=O)CC3)CC[C@]3(C)[C@H](CC[C@@H]4[C@@]5(C)CC=C(C6=CC(C(=O)O)C(C(=O)O)C6)C(C)(C)[C@@H]5CC[C@]43C)[C@@H]12", "note": "(single isomer, unassigned) [Example A19]", "EC50": 100}, {"smiles": "C=C(C)[C@@H]1CC[C@]2(NCCN3CCS(=O)(=O)CC3)CC[C@]3(C)[C@H](CC[C@@H]4[C@@]5(C)CC=C(C6=CC(C(F)(F)C(=O)O)CC6)C(C)(C)[C@@H]5CC[C@]43C)[C@@H]12", "note": "(single isomer, unassigned) [Example A23]", "EC50": 5.63}, {"smiles": "C=C(C)[C@@H]1CC[C@]2(NCCN3CCS(=O)(=O)CC3)CC[C@]3(C)[C@H](CC[C@@H]4[C@@]5(C)CC=C(C6=CCC(C(F)(F)C(=O)O)C6)C(C)(C)[C@@H]5CC[C@]43C)[C@@H]12", "note": "(single isomer, unassigned) [Example A24]", "EC50": 4.65}, {"smiles": "C=C(C)[C@@H]1CC[C@]2(NCCN3CCS(=O)(=O)CC3)CC[C@]3(C)[C@H](CC[C@@H]4[C@@]5(C)CC=C(C6=CC7C(C6)C7C(=O)O)C(C)(C)[C@@H]5CC[C@]43C)[C@@H]12", "note": "(single isomer, unassigned) [Example A26]", "EC50": 0.941}, {"smiles": "C=C(C)[C@@H]1CC[C@]2(NCCN3CCC(S(C)(=O)=O)CC3)CC[C@]3(C)[C@H](CC[C@@H]4[C@@]5(C)CC=C(C6=CC7C(C6)C7C(=O)O)C(C)(C)[C@@H]5CC[C@]43C)[C@@H]12", "note": "(single isomer, unassigned) [Example A27]", "EC50": 0.921}, {"smiles": "C=C(C)[C@@H]1CC[C@]2(NCCN3CCS(=O)(=O)CC3)CC[C@]3(C)[C@H](CC[C@@H]4[C@@]5(C)CC=C(C6=CCC(C(=O)O)CC6)C(C)(C)[C@@H]5CC[C@]43C)[C@@H]12", "note": "(stereo in doubt) [Example 9, (R)-4-((1R,3aS,5aR,5bR,7aR,11aS,11bR,13aR,13bR)-3a-((2-(1,1-dioxidothiomorpholino)ethyl)amino)-5a,5b,8,8,11a-pentamethyl-1-(prop-1-en-2-yl)-2,3,3a,4,5,5a,5b,6,7,7a,8,11,11a,11b,12,13,13a,13b-octadecahydro-1H-cyclopenta[a]chrysen-9-yl)cyclohex-3-enecarboxylic acid, TFA]", "EC50": 0.892}, {"smiles": "C=C(C)[C@@H]1CC[C@]2(NCCN3CCS(=O)(=O)CC3)CC[C@]3(C)[C@H](CC[C@@H]4[C@@]5(C)CC=C(C6=CCC(C(=O)O)CC6)C(C)(C)[C@@H]5CC[C@]43C)[C@@H]12", "note": "(stereo in doubt) [Example 10, (S)-4-((1R,3aS,5aR,5bR,7aR,11aS,11bR,13aR,13bR)-3a-((2-(1,1-dioxidothiomorpholino)ethyl)amino)-5a,5b,8,8,11a-pentamethyl-1-(prop-1-en-2-yl)-2,3,3a,4,5,5a,5b,6,7,7a,8,11,11a,11b,12,13,13a,13b-octadecahydro-1H-cyclopenta[a]chrysen-9-yl)cyclohex-3-enecarboxylic acid, TFA]", "EC50": 1.26}, {"smiles": "C=C(C)[C@@H]1CC[C@]2(NCCN3CCS(=O)(=O)CC3)CC[C@]3(C)[C@H](CC[C@@H]4[C@@]5(C)CC=C(C6=CC7(C6)CC(C(=O)O)(C(=O)O)C7)C(C)(C)[C@@H]5CC[C@]43C)[C@@H]12", "note": "[Example 1, 6-((1R,3aS,5aR,5bR,7aR,11aS,11bR,13aR,13bR)-3a-((2-(1,1-dioxidothiomorpholino)ethyl)amino)-5a,5b,8,8,11a-pentamethyl-1-(prop-1-en-2-yl)-2,3,3a,4,5,5a,5b,6,7,7a,8,11,11a,11b,12,13,13a,13b-octadecahydro-1H-cyclopenta[a]chrysen-9-yl)spiro[3.3]hept-5-ene-2,2-dicarboxylic acid, HCl]", "EC50": 10}, {"smiles": "C=C(C)[C@@H]1CC[C@]2(NCCN3CCS(=O)(=O)CC3)CC[C@]3(C)[C@H](CC[C@@H]4[C@@]5(C)C=CC(=C6CC7(C6)CC(C(=O)O)(C(=O)O)C7)C(C)(C)[C@@H]5CC[C@]43C)[C@@H]12", "note": "[Example 2, 6-((1R,3aS,5aR,5bR,7aR,11aS,11bR,13aR,13bR)-3a-((2-(1,1-dioxidothiomorpholino)ethyl)amino)-5a,5b,8,8,11a-pentamethyl-1-(prop-1-en-2-yl)-2,3,3a,4,5,5a,6,7,7a,8,11b,12,13,13a-tetradecahydro-1H-cyclopenta[a]chrysen-9(5bH,11aH,13bH)-ylidene)spiro[3.3]heptane-2,2-dicarboxylic acid, HCl]", "EC50": 30}, {"smiles": "C=C(C)[C@@H]1CC[C@]2(NCCN3CCS(=O)(=O)CC3)CC[C@]3(C)[C@H](CC[C@@H]4[C@@]5(C)CC=C(C6=CC7(C6)CC(C(=O)O)C7)C(C)(C)[C@@H]5CC[C@]43C)[C@@H]12", "note": "(stereo partly drawn) [Example 3, 6-((1R,3aS,5aR,5bR,7aR,11aS,11bR,13aR,13bR)-3a-((2-(1,1-dioxidothiomorpholino)ethyl)amino)-5a,5b,8,8,11a-pentamethyl-1-(prop-1-en-2-yl)-2,3,3a,4,5,5a,5b,6,7,7a,8,11,11a,11b,12,13,13a,13b-octadecahydro-1H-cyclopenta[a]chrysen-9-yl)spiro[3.3]hept-5-ene-2-carboxylic acid, HCl]", "EC50": 1.54}, {"smiles": "C=C(C)[C@@H]1CC[C@]2(NCCN3CCS(=O)(=O)CC3)CC[C@]3(C)[C@H](CC[C@@H]4[C@@]5(C)CC=C(C6=CCC(C(=O)O)CC6)C(C)(C)[C@@H]5CC[C@]43C)[C@@H]12", "note": "(stereo partly drawn) [Example 4, 4-((1R,3aS,5aR,5bR,7aR,11aS,11bR,13aR,13bR)-3a-((2-(1,1-dioxidothiomorpholino)ethyl)amino)-5a,5b,8,8,11a-pentamethyl-1-(prop-1-en-2-yl)-2,3,3a,4,5,5a,5b,6,7,7a,8,11,11a,11b,12,13,13a,13b-octadecahydro-1H-cyclopenta[a]chrysen-9-yl)cyclohex-3-enecarboxylic acid, TFA]", "EC50": 0.659}, {"smiles": "CC(C)[C@@H]1CC[C@]2(NCCN3CCS(=O)(=O)CC3)CC[C@]3(C)[C@H](CC[C@@H]4[C@@]5(C)CC=C(C6CC7(C6)CC(C(=O)O)(C(=O)O)C7)C(C)(C)[C@@H]5CC[C@]43C)[C@@H]12", "note": "[Example 5, 6-((1S,3aS,5aR,5bR,7aR,11aS,11bR,13aR,13bR)-3a-((2-(1,1-dioxidothiomorpholino)ethyl)amino)-1-isopropyl-5a,5b,8,8,11a-pentamethyl-2,3,3a,4,5,5a,5b,6,7,7a,8,11,11a,11b,12,13,13a,13b-octadecahydro-1H-cyclopenta[a]chrysen-9-yl)spiro[3.3]heptane-2,2-dicarboxylic acid, TFA]", "EC50": 40}, {"smiles": "C=C(C)[C@@H]1CC[C@]2(C(=O)O)CC[C@]3(C)[C@H](CC[C@@H]4[C@@]5(C)CC=C(C6=CC7(C6)CC(C(=O)O)(C(=O)O)C7)C(C)(C)[C@@H]5CC[C@]43C)[C@@H]12", "note": "[Example 6, 6-((1R,3aS,5aR,5bR,7aR,11aS,11bR,13aR,13bR)-3a-carboxy-5a,5b,8,8,11a-pentamethyl-1-(prop-1-en-2-yl)-2,3,3a,4,5,5a,5b,6,7,7a,8,11,11a,11b,12,13,13a,13b-octadecahydro-1H-cyclopenta[a]chrysen-9-yl)spiro[3.3]hept-5-ene-2,2-dicarboxylic acid]", "EC50": 30}]}]}
